Assay results as given in patent US4994376A, “Detection of bacteroides gingivalis” (priority 1987, dated 1991).
Like-named read-outs stand apart in the source and are kept apart here. Peptide text beside a SMILES is read from it. * marks the point of attachment. βNA = c1ccc2cc(N*)ccc2c1

Columns and labels:
Format in all cases: biochemical
[1] = system: Veillonella alcalesens; assay: Aminopeptidase activity on β-naphthylamide substrates; conditions: strain ATCC 11748; β-naphthylamine liberated after 60 minutes, 37° C.
In short: (§1)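 Chromogenic assay using N-CBz-glycyl-glycyl-L-arginine-β-naphthylamide, incubated 1 hour at 37° C. Liberated β-naphthylamine is coupled with Fast Garnet GBC (0.5 mg/ml) in 1M acetic acid pH 4.2 with 10% Tween 20 for 15 min at room temperature, then read at 525 nm.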

[2] = system: Campylobacter sputorum; conditions: strain Ba1-21; β-naphthylamine liberated after 60 minutes, 37° C.
In short: as §1

[3] = system: "Anaerobic vibrio"; conditions: strain SN2T2; β-naphthylamine liberated after 60 minutes, 37° C.
In short: as §1

[4] = system: S. sanguis; conditions: β-naphthylamine liberated after 60 minutes, 37° C.
In short: as §1

[5] = system: A. viscosus; conditions: β-naphthylamine liberated after 60 minutes, 37° C.
In short: as §1

[6] = system: A. seminis; conditions: strain ATCC 15768; β-naphthylamine liberated after 60 minutes, 37° C.
In short: as §1

Row | Structure (SMILES) | Aminopeptidase activity [1] | Aminopeptidase activity [2] | Aminopeptidase activity [3] | Aminopeptidase activity ([4]; strain ATCC 10556) | Aminopeptidase activity ([4]; strain ATCC 10557) | Aminopeptidase activity ([5]; strain ATCC 19246) | Aminopeptidase activity ([5]; strain T14V) | Aminopeptidase activity [6]
1 | CSCCC(N)C(=O)Nc1ccc2ccccc2c1 (racemic) | 0 nmol | 0 nmol | 0 nmol | 23 nmol | 18 nmol | 9 nmol | 7 nmol | 0 nmol
2 | C[C@H](N)C(=O)N[C@@H](C)C(=O)N[C@@H](Cc1ccccc1)C(=O)Nc1ccc2ccccc2c1 [Ala-Ala-Phe] (H-Ala-Ala-Phe-βNA) | 1 nmol | 0 nmol | 0 nmol | 2 nmol | 1 nmol | 2 nmol | 4 nmol | 0 nmol
3 | CC(C)C[C@H](NC(=O)[C@@H]1CCCN1C(=O)CN)C(=O)Nc1ccc2ccccc2c1 [Gly-Pro-Leu] (H-Gly-Pro-Leu-βNA) | 0 nmol | 2 nmol | 0 nmol | 11 nmol | 6 nmol | 0 nmol | 2 nmol | 0 nmol
4 | CC(C)C[C@H](N)C(=O)NCC(=O)O [Leu-Gly, Leucyl-glycine] (H-Leu-Gly-OH) | – | 0 nmol | 0 nmol | 0 nmol | 0 nmol | 0 nmol | 0 nmol | 0 nmol
5 | Cl.N=C(N)NCCC[C@H](NC(=O)CNC(=O)CNC(=O)OCc1ccccc1)C(=O)Nc1ccc2ccccc2c1 [N-CBz-Gly-Gly-Arg, N-carbobenzoxy-glycyl-glycyl-L-arginine-β-naphthylamide hydrochloride] | 0 nmol | 0 nmol | 1 nmol | 0 nmol | 0 nmol | 0 nmol | 0 nmol | 1 nmol
6 | NC(=O)[C@@H](N)CCC(=O)O [α-Glu, α -glutamine] | 0 nmol | 1 nmol | 0 nmol | 0 nmol | 0 nmol | 0 nmol | 0 nmol | 0 nmol
